Measurements published in US11083717B2, “Compositions and methods for drug sensitization of parasites” (The Texas A&M University System, priority 2015, dated 2021).
Values after ≈ are worked out from the molar mass of the structure shown. Where two headings read alike, the source gives them in different places.

Key:
Cryptosporidium parvum = system: Cryptosporidium parvum
Description: The anticryptosporidial activity of the in vitro inhibitors was assessed in the IL-12 knockout mouse model that resembles the acute human disease (Ehigiator H N, Romagnoli P, Borgelt K, Fernandez M, McNair N, Secor W E, Mead J R. 2005. Mucosal cytokine and antigen-specific responses to Cryptosporidium parvum in IL-12p40 KO mice. Parasite Immunol. 27: 17-28; Campbell L D, Stewart J N, Mead J R. 2002. Susceptibility to Cryptosporidium parvum infections in cytokine- and chemokine-receptor knockout mice. J. Parasitol. 88:1014-1016). The protocol was approved by the Institutional Animal Care and Use Committees of Emory University, the AtlantaVAMedical Center, and Brandeis University. Mice (6 to 10 per group) were inoculated with 1,000 purified CP oocysts (Iowa isolate, from cattle). Treatment by gavage began 4 h postinfection with either vehicle (5% dimethyl sulfoxide (DMSO) in canola oil), 50-100 mg/kg compound, or 2,000 mg/kg paromomycin. Compounds were given for 7 days, and mice were sacrificed on day 8 (peak infection). Parasite load was quantified by fluorescence-activated cell sorting (FACS) assays for the presence of the oocysts in the feces at days 0, 4, and 7. Fecal pellets from individual mice were routinely collected daily and homogenized in adjusted volumes of 2.5% potassium dichromate. Samples were processed individually. Aliquots (200 ul) of vortexed samples were processed over microscale sucrose gradients as previously described (Arrowood M J, Hurd M R, Mead J R. 1995. A new method for evaluating experimental cryptosporidial parasite loads using immunofluorescent flowcytometry. J. Parasitol. 81:404-409). The oocyst-containing fraction was collected, washed, and treated with monoclonal antibody (OW5O-FITC) for 20 min. Samples were adjusted to 600 ul, and a portion (100 ul) was assayed with a 102-s sampling interval using logical gating of forward/side scatter and OW5O-FITC fluorescence signal on a Becton, Dickinson FACScan flow cytometer. Flow cytometry data were evaluated by analysis of variance (KaleidaGraph (Synergy Software, Reading Pa.); Microsoft Excel (Microsoft Corporation, Redmond, Wash.)).
NZ-366 (50 mg/kg) and NZ-369 (100 mg/kg) were administered via gavage in a single daily dose to IL-12 knockout mice that were infected with 1,000 CP oocysts. Additional control groups included those treated with single daily doses of vehicle, and paromomycin (Prm) (2,000 mg/kg), by oral gavage.

[1] = MCLint in vitro intrinsic clearance, mouse (MLM); assay type: in vitro ADME
[2] = target: Human ether-a-go-go-related gene (hERG) (Homo sapiens, UniProt Q12809); test: hERG test (potential cardiotoxicity); assay type: biochemical; settings: read-out: hERG (Abbvie)
Plasma protein binding = assay type: in vitro ADME; settings: mouse, mice, read-out: PPB (converted)
S. cerevisiae = test: in vitro; settings: Saccharomyces cerevisiae
human fibroblast = test: in vitro; settings: human
[3] = HCLint in vitro intrinsic clearance, human (HLM); assay type: in vitro ADME
[4] = system: Cryptosporidium parvum (CP); test: Cell culture model of Cryptosporidium parvum infection in HCT-8 cells, real-time qRT-PCR; assay type: cell-based; settings: Cryptosporidium parvum
Outline: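 HCT-8 monolayers were infected with C. parvum Iowa oocysts (1.5×10^4/well) for 3 h, then compounds were added after medium exchange and cells were incubated 41 h more (44 h total, 37 °C). Parasite Cp18S rRNA was measured by one-step SYBR qRT-PCR of lysates, normalized to host Hs18S, and % inhibition at the stated µM was derived from a standard curve.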

Kinetic solubility = assay type: physicochemical
hERG = hERG (Homo sapiens, UniProt Q12809); test: hERG test (potential cardiotoxicity); assay type: biochemical; settings: human; read-out: hERG (Abbvie)
[5] = NZ-366 50 mg/kg, NZ-369 100 mg/kg, paromomycin 2,000 mg/kg
[6] = 44 h, CP in HCT-8 cells, 44 h infection, 50% reduction of parasite growth vs control, NA: not active, read-out: MIC50

Sequence of Human ether-a-go-go-related gene (hERG) (Q12809 whole entry): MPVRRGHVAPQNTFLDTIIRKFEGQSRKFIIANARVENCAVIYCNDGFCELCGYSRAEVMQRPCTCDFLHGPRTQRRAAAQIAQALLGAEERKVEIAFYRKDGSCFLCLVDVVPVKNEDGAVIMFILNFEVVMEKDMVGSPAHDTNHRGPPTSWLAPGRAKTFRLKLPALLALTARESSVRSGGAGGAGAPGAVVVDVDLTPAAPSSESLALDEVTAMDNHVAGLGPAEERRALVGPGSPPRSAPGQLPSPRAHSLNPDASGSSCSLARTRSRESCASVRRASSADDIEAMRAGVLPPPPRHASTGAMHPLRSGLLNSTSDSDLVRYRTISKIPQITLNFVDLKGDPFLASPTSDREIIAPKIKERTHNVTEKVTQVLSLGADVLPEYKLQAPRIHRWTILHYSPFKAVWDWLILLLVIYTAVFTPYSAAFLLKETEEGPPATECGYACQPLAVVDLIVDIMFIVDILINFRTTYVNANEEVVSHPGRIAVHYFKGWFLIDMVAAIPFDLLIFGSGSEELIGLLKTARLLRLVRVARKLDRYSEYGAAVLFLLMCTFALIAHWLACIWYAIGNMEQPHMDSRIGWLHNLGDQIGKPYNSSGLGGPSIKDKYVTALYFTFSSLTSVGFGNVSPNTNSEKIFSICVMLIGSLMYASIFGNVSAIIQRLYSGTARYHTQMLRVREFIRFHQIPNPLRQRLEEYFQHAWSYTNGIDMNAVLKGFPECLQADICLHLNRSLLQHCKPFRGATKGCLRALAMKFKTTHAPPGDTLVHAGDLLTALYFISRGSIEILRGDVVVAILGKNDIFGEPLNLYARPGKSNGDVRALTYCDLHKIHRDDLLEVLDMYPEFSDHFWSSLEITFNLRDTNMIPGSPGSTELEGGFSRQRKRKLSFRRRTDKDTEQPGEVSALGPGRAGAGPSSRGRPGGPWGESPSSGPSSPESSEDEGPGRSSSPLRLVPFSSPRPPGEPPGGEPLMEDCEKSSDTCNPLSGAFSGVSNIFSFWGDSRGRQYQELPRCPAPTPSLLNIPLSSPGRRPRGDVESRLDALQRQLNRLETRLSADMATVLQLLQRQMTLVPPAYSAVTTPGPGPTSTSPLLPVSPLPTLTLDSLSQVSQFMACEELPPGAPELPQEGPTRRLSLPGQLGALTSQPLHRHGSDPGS
Sequence of hERG (Q12809 whole entry): as above

Row | SMILES | Mouse Model (Mead) DPI7 (Cryptosporidium parvum; @50 mg/kg, day 7 post infection) | overt toxicity in the treated infected mice (Cryptosporidium parvum; NZ-366 50 mg/kg, NZ-369 100 mg/kg, 7 days) | anticryptosporidial activity, fecal oocysts day 7 post infection (Cryptosporidium parvum; NZ-366 50 mg/kg, NZ-369 100 mg/kg, gavage, single daily dose, FIG. 1) | effectiveness compared with paromomycin after a single dose (Cryptosporidium parvum; [5]) | effectiveness compared with paromomycin over the course of the study (Cryptosporidium parvum; [5]) | MCLint (mL/min/g liver), MLM [1] | IC50 [2] [µM] | fraction unbound (Plasma protein binding) | concentrations at which not toxic, S. cerevisiae cytotoxicity testing (S. cerevisiae) [µM] | concentrations at which not toxic, human fibroblast cytotoxicity testing (human fibroblast) [µM] | IC50 (in vitro; Saccharomyces cerevisiae) [µM] | IC50 (in vitro; human) [µM] | HCLint (mL/min/g liver), HLM [3] | MIC50 [4, 6] [nM] | MIC50 ([4]; read-out: MIC50 (nM) (CP)) | Kinetic Sol. (Kinetic solubility) [µM] | IC50 (hERG) [µM]
1 | CC(C(=O)N1CCN(C)CC1)c1ccc(Oc2nc3ccc(Cl)cc3s2)cc1 (stereo not drawn) [NZ-366, 2-{4-[(6-chloro-1,3-benzothiazol-2-yl)oxy]phenyl}-1-(4-methylpiperazin-1-yl)propan-1-one] | DPI7 = 59% | no overt toxicity | have anticryptosporidial activity | more effective than paromomycin | equally as effective as paromomycin | MLM = 41 mL/min/g liver | 2.4 | 0.019 | 25 to 50 | 25 to 50 | 80 | 48 | HLM = 7.9 mL/min/g liver | 50 (≈ 0.0208 µg/mL) | 50 (≈ 0.0208 µg/mL) | 62 | –
2 | CC(C(=O)NCCO)c1ccc(Oc2nc3ccc(Cl)cc3s2)cc1 (stereo not drawn) [NZ-370, 2-{4-[(6-chloro-1,3-benzothiazol-2-yl)oxy]phenyl}-N-(2-hydroxyethyl)propanamide] | – | – | – | – | – | – | – | – | ≥ 100 | ≥ 100 | > 100 | > 100 | – | 50 to 60 (≈ 0.0188 to 0.0226 µg/mL) | 50 to 60 (≈ 0.0188 to 0.0226 µg/mL) | 40 | 30
